# Source: patent US20130011845A1, “MICRORNA REGULATING THE INSULIN SIGNALING PATHWAY, AND METHOD FOR SCREENING MATERIAL FOR CONTROLLING THE ACTION OF A TARGET THEREOF” (SNU R & DB Foundation, priority 2009, published 2013)
# Legend:
# FOG2 3′UTR = test: dual-luciferase 3′UTR reporter assay, pAC-FOG2; type: cell-based; conditions: luciferase reporter with FOG2 3′UTR, human Hela cell lines; average of at least two independent experiments
# Method: (§1) In order to determine whether the target genes identified in Example 7 are in actuality targets of miR-8 and miR-200 family miRNAs, the inventors performed cloning. In other words, […] containing the miRNA target sites. Specifically, in order to obtain cDNAs of respective target genes, from drosophila S2 cell lines or human Hela cell lines, total RNA was extracted by using RNeasy mini kit (QIAGEN, US). 1 μg of total RNA and 1 μl of Oligo-dT (Invitrogen, US) were charged with up to 50 μl of distilled water, and placed into SuperScript First-Strand Synthesis System (Invitrogen, US), followed by RT-PCR reaction. Through the reaction at 65° C. for 6 min, at 4° C. for 5 min, at 42° C. for 60 min, at 95° C. for 5 min, and at 4° C. for 5 min, cDNA was synthesized. By using the cDNA (3˜5 μg) as template, and using a primer pair on respective genes noted in Table 3 and PCR Mastermix (Promega, US), PCR was performed on 3′UTR of ush, Lap1, CG8445, dbo, Lar, Ced-12, CG12333, cbt, FOG2, SEPT7, RIN2, SHC1, HOXB5, LF11, TCF7L1, ERBB21P, ELMO2, BAP1, WDR37, KLHL20, PTPRD, RASSF2 and VAC14 from among the target genes selected in Example 7. Herein, PCRP on atro as a drosophila control gene was also performed. After the reaction was completed, the PCR product on each gene's 3′UTR region was cleaved by each of the following restriction enzymes:
# (§2) Then, it was cloned into pAC5.1 luciferase vector (a kind gift of Elisa Izaurralde) cleaved by the same restriction enzymes so as to produce a reporter plasmid having a miR-8 or miR-200 family target sequence in luciferase gene's 3′UTR sequence.
# (§3) Reporter plasmids and renilla luciferase expression vectors (Promega, US), as noted in Table 4, and miRNAs of miR-200 family of miR-141, miR-200a (hsa-miR-200a, SEQ ID: 87: 5′-[…]-3′), miR-200b, miR-200c (has-miR-200c, SEQ ID: 88: 5′-[…]-3′) and miR-429, and miR-8 (dme-miR-8, SEQ ID: 89: 5′-[…]-3′) were bought from Samchonri and cotransfected into drosophila S2 cell lines or human Hela cell lines. Then, the activities of luciferase were measured through dual-luciferase assay (Promega, US) by a luminometer (Biorad). Then, 7 gene pairs that respond both to miR-8 and to mir-200 family miRNAs in Drosophila and human cells, respectively were identified (see FIG. 15).
# KLHL20 3′UTR = test: dual-luciferase 3′UTR reporter assay, pAC-KLHL20; type: cell-based; conditions: luciferase reporter with KLHL20 3′UTR, human Hela cell lines; average of at least two independent experiments
# Method: as §1, §2, §3
# WDR37 3′UTR = test: dual-luciferase 3′UTR reporter assay, pAC-WDR37; type: cell-based; conditions: luciferase reporter with WDR37 3′UTR, human Hela cell lines; average of at least two independent experiments
# Method: as §1, §2, §3
# HOXB5 3′UTR = test: dual-luciferase 3′UTR reporter assay, pAC-HOXB5; type: cell-based; conditions: luciferase reporter with HOXB5 3′UTR, human Hela cell lines; average of at least two independent experiments
# Method: as §1, §2, §3
# SEPT7 3′UTR = test: dual-luciferase 3′UTR reporter assay, pAC-SEPT7; type: cell-based; conditions: luciferase reporter with SEPT7 3′UTR, human Hela cell lines; average of at least two independent experiments
# Method: as §1, §2, §3
# RIN2 3′UTR = test: dual-luciferase 3′UTR reporter assay, pAC-RIN2; type: cell-based; conditions: luciferase reporter with RIN2 3′UTR, human Hela cell lines; average of at least two independent experiments
# Method: as §1, §2, §3
# SHC1 3′UTR = test: dual-luciferase 3′UTR reporter assay, pAC-SHC1; type: cell-based; conditions: luciferase reporter with SHC1 3′UTR, human Hela cell lines; average of at least two independent experiments
# Method: as §1, §2, §3
# MCF-7 cell lines = test: cell proliferation by counting the number of cells; type: cell-based, human; conditions: MCF-7 cell lines transduced; counted on day 1, 4, 5, 6, 7 and 8; compared to untreated or siGFP cells
# Description: It has been known that when human miRNAs, that is, miR-200 family (miR-200a, miR-200b, miR-200c, miR-141, and miR-429) are transduced into human cell lines, cell growth is promoted (Park, S Y et al., 2009, Nat Struct Mol Biol 16, 23-29). In MCF-7 cell lines not treated with anything, and MCF-7 cell lines transduced with siRNA targeting GFP (siGFP, SEQ ID: 1: 5′-UGAAUUAGAUGGCGAUGUU-3′, Samchonri), miR-200 family [miR-141(has-miR-141, SEQ ID: 2: 5′-[…]-3′), miR-200b (has-miR-200b, SEQ ID: 3: 5′-[…]-3′), miR-429(has-miR-429, SEQ ID: 4: 5′-[…]-3′)] and miR-29b (known to inhibit cell proliferation), on day 1, 4, 5, 6, 7 and 8, the inventors counted the number of cells and measured cell proliferation.
substance,measurement,setting,value
"5′-UAACACUGUCUGGUAACGAUGU-3′ (listed as RNA, chemistry not given here) [miR-200a]","Represion fold, FOG2",FOG2 3′UTR,0.64 fold
same,"Represion fold, KLHL20",KLHL20 3′UTR,1.02 fold
same,"Represion fold, WDR37",WDR37 3′UTR,0.76 fold
same,"Represion fold, HOXB5",HOXB5 3′UTR,1.16 fold
same,"Represion fold, SEPT7",SEPT7 3′UTR,0.97 fold
same,"Represion fold, RIN2",RIN2 3′UTR,2.49 fold
same,"Represion fold, SHC1",SHC1 3′UTR,1.63 fold
"5′-UAAUACUGUCUGGUAAAACCGU-3′ (listed as RNA, chemistry not given here) [miR-429]","Represion fold, FOG2",FOG2 3′UTR,0.47 fold
same,"Represion fold, KLHL20",KLHL20 3′UTR,0.55 fold
same,"Represion fold, WDR37",WDR37 3′UTR,1.31 fold
same,"Represion fold, HOXB5",HOXB5 3′UTR,0.72 fold
same,"Represion fold, SEPT7",SEPT7 3′UTR,1.14 fold
same,"Represion fold, RIN2",RIN2 3′UTR,1.41 fold
same,"Represion fold, SHC1",SHC1 3′UTR,2.17 fold
same,cell proliferation (number of cells),MCF-7 cell lines,increased cell proliferation
"5′-UAACACUGUCUGGUAAAGAUGG-3′ (listed as RNA, chemistry not given here) [miR-141]","Represion fold, FOG2",FOG2 3′UTR,0.59 fold
same,"Represion fold, KLHL20",KLHL20 3′UTR,0.84 fold
same,"Represion fold, WDR37",WDR37 3′UTR,1.07 fold
same,"Represion fold, HOXB5",HOXB5 3′UTR,0.92 fold
same,"Represion fold, SEPT7",SEPT7 3′UTR,1.00 fold
same,"Represion fold, RIN2",RIN2 3′UTR,1.10 fold
same,"Represion fold, SHC1",SHC1 3′UTR,1.64 fold
same,cell proliferation (number of cells),MCF-7 cell lines,increased cell proliferation
"5′-UAAUACUGCCUGGUAAUGAUGA-3′ (listed as RNA, chemistry not given here) [miR-200b]","Represion fold, FOG2",FOG2 3′UTR,0.37 fold
same,"Represion fold, KLHL20",KLHL20 3′UTR,0.85 fold
same,"Represion fold, WDR37",WDR37 3′UTR,1.16 fold
same,"Represion fold, HOXB5",HOXB5 3′UTR,0.73 fold
same,"Represion fold, SEPT7",SEPT7 3′UTR,0.95 fold
same,"Represion fold, RIN2",RIN2 3′UTR,1.91 fold
same,"Represion fold, SHC1",SHC1 3′UTR,1.41 fold
same,cell proliferation (number of cells),MCF-7 cell lines,increased cell proliferation
